According to PubChem BioAssay (NCI):
“And” between values parts separate entries of the source, which are not always exact repeats. Equal values may be shown once.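 Where inhibition never reached the appropriate level, the endpoint shown equals the highest concentration tested. Otherwise, values were interpolated linearly from a five-concentration, 48-hour dose response in 96-well plates. GI50: concentration for 50% inhibition of growth. TGI marks complete inhibition of growth.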

Tests used:
Test in all cases: NCI tumour cell line growth inhibition, 48 h
MDA-N = tested on: MDA-N
DMS 114 small cell lung = tested on: DMS 114 small cell lung
KM20L2 colon = tested on: KM20L2 colon
LXFL 529 NSCLC = tested on: LXFL 529 NSCLC
M19-MEL melanoma = tested on: M19-MEL melanoma
RXF-631 renal = tested on: RXF-631 renal
XF 498 CNS = tested on: XF 498 CNS
HOP-18 NSCLC = tested on: HOP-18 NSCLC
SNB-78 CNS = tested on: SNB-78 CNS
P388 leukemia = tested on: P388 leukemia
SN12K1 renal = tested on: SN12K1 renal

Row | SMILES | TGI (MDA-N) [µM] | TGI (DMS 114 small cell lung) | TGI (KM20L2 colon) | TGI (LXFL 529 NSCLC) | TGI (M19-MEL melanoma) [µM] | TGI (RXF-631 renal) [µM] | TGI (XF 498 CNS) | TGI (HOP-18 NSCLC) | TGI (SNB-78 CNS) [µM] | also measured
1 | Nc1nc(N)c2c(n1)CCC(S(=O)(=O)c1ccc3ccccc3c1)C2 (stereo not given) | > 100 | – | – | – | – | – | – | – | – | –
2 | CC#CC#C/C(=C/C=CC(=O)OC)SC | > 100 | – | – | – | – | – | – | – | – | –
3 | N#Cc1cccc(C2C(=O)c3ccc(C(=O)c4ccc5c(c4)C(=O)N(c4ccc(Oc6ccc(N7C(=O)c8ccc(C(=O)c9ccc%10c(c9)C(=O)N(c9cccc(C#N)c9)C%10=O)cc8C7=O)cc6)cc4)C5=O)cc3C2=O)c1 (stereo not given) | – | > 100 µM | > 100 µM | > 100 µM | > 100 | > 100 | > 100 µM | – | – | –
4 | COc1ccc([C@@H]2OC(=O)C3C2C(=O)O[C@H]3c2ccc(OC)cc2)cc1 (stereo not given in full) | – | > 100 µM | > 100 µM | > 100 µM | > 100 | > 100 | > 100 µM | > 100 µM | > 100 | –
5 | CCCCCCCCCC[C@H](O)[C@H]1CC[C@@H]([C@@H](O)CC[C@H](O)[C@@H]2CCC(CCCCCCC[C@@H](O)CC3=C[C@H](C)OC3=O)O2)O1 (stereo not given in full) | 16 | – | – | – | – | – | – | – | – | GI50 (MDA-N): 2.1 µM
6 | CSC1=Nc2ccccc2N=C(c2ccccc2)C1 | – | 65.5 µM | > 100 µM | > 100 µM | > 100 | > 100 | > 100 µM | > 100 µM | > 100 | –
7 | c1ccc(CC(Nc2cccnc2)c2ccccc2)cc1 (stereo not given) | 47.8 | – | – | – | – | – | – | – | – | –
8 | CC1[C@@H]2CC=C3[C@H]4CCC5Cc6nc7c(nc6C[C@@]5(C)C4CC(=O)[C@]32CO[C@]12OC(C)(C)CC2O)CC1CC[C@@H]2C3=C[C@H]4O[C@@]5(O[C@@](C)(CO)C[C@@H]5O)C(C)[C@@]4(O)[C@]3(C)[C@@H](O)CC2[C@]1(C)C7 (stereo not given in full) | 0.0303 | 0.0424 µM | 0.0349 µM and 0.0754 µM | 0.00244 µM | > 3.65 | 0.00275 | 0.424 µM and 1.8 µM | 0.393 µM and > 3.65 µM | – | GI50 (KM20L2 colon): 0.00119 µM and 0.00294 µM; GI50 (LXFL 529 NSCLC): 0.000384 µM; GI50 (M19-MEL melanoma): 0.617 µM and 2.48 µM; GI50 (MDA-N): 0.00389 µM; TGI (P388 leukemia): 0.000638 µM; GI50 (RXF-631 renal): 0.000312 µM; TGI (SN12K1 renal): 0.397 µM; GI50 (SNB-78 CNS): 0.000777 µM and 0.00329 µM; GI50 (XF 498 CNS): 0.000725 µM and 0.00479 µM
9 | CC1=C(C(=O)Nc2ccc(C)cc2)C(c2cccc([N+](=O)[O-])c2)C(C(=O)Nc2ccc(C)cc2)=C(C)N1 | – | 74.2 µM | 48 µM | > 100 µM | 63.4 | 91.3 | 50.7 µM | 80.2 µM | > 100 | –
10 | CC[As](CC)SCC1OC(OC(C)=O)C(OC(C)=O)C(OC(C)=O)C1OC(C)=O (stereo not given) | – | 17.6 µM | 32.7 µM | 3.77 µM | 27.5 | 6.64 | 32 µM | 29.6 µM | 34.1 | –
11 | CC(C)C1=CC2=C(C(=O)C1=O)C13CCCC(C)(C)C1CC2OC3=O (stereo not given) | 37.2 | – | – | – | – | – | – | – | – | –
12 | Cc1c(Cl)c(C)c(Cl)c(O)c1Cl | 99.2 | – | – | – | – | – | – | – | – | –
13 | COc1ccc2nc3ccccc3c(NCCN(CCCl)CCCl)c2c1 | – | – | 2.4 µM | 2.25 µM | 3.2 | 4.71 | 1.89 µM | – | 4.53 | –
14 | C=C(Br)COc1ccc2c(C)cc(=O)oc2c1 | > 100 | – | – | – | – | – | – | – | – | –
15 | CC(=O)O[C@@H]1CC[C@@]2(C)C(=O)C34C[C@@]5(C)C([C@@H](C)CCCC(C)C)CCC5(C)[C@](O)(O3)C(=O)[C@H]4C2C1(C)C (stereo not given in full) | – | 33.6 µM | 32.5 µM | 30.4 µM | 27.3 | 34.2 | – | 29.5 µM | 48.2 | –
16 | Cc1cc(Cl)cc2c1NC(=O)C2(O)C(C(=O)c1ccccc1)c1ccccc1 (stereo not given) | – | 85.7 µM and 45.8 µM | > 100 µM | > 100 µM and 72.8 µM | 10 | > 100 | 82.7 µM and > 100 µM | > 100 µM and 95.7 µM | > 100 | GI50 (HOP-18 NSCLC): > 100 µM and 22 µM; GI50 (LXFL 529 NSCLC): 56.2 µM and 24 µM
17 | CC1(C)C(CC(=O)O)CCCC1CC(=O)O (stereo not given) | > 100 | – | – | – | – | – | – | – | – | –
18 | CCN(CC)C(=O)CC12CCCCC1=Nc1ccccc12 (stereo not given) | – | – | > 100 µM | > 100 µM | > 100 | > 100 | > 100 µM | > 100 µM | > 100 | –
19 | CN(C)c1ccc(/C=c2/c3cc(O)ccc3n3c2cc(-c2ccccc2)[n+]3C)cc1 | 1.96 | – | – | – | – | – | – | – | – | –
